This passage reports IC50 and GI50 results from US20220024921A1, “1,3,4-OXADIAZOLONE COMPOUND AND PHARMACEUTICAL” (NIPPON SHINYAKU CO., LTD., priority 2018, published 2022).

Where a name gives a salt, the structure may show the parent alone.

Test [1] has as its target T1, PIM1 serine/threonine kinase (Homo sapiens, UniProt P11309).
T1 construct: purchased Carna Bioscience, Inc
The test can be described thus: PIM1 serine/threonine kinase inhibitory effect. Type of test: biochemical. Particulars: PIM1 serine/threonine kinase activity; ATP 40 μM; 30° C., 30 minutes. The method, then: Each test substance was prepared to 10 mM with dimethylsulfoxide (DMSO), and further diluted with DMSO so as to have concentrations of 1000, 300, 100, 30, 10, 3, 1, 0.3, 0.1, 0.03, 0.01, and 0.001 μM. Moreover, each dilution was further diluted 33.3-fold with an assay buffer to prepare a test substance solution. The composition of the assay buffer was 50 mM HEPES (pH 7.0), 0.02% NaN3, 0.01% Bovine Serum Albumin, 0.1 mM Orthovanadate, 1 mM Dithiothreitol, and 5 mM MgCl2.
5 μL of each test substance solution was added to 384-well plates (n=2), and then 2.5 μL of a substrate solution (substrate 3-biotin (Cisbio Bioassays SAS), final concentration in the reaction solution: 0.5 μM) and 2.5 μL of an ATP solution (in the cases of PIM1, 2, 3, the final concentrations in the reaction solutions were 40, 2, and 10 μM, respectively) were added, 5 μL of each of PIM1, 2, 3 serine/threonine kinase solutions (Carna Bioscience, Inc., the final concentrations in the reaction solutions were 0.15, 1.6, and 0.25 μg/ml, respectively) was finally added, and the mixture was reacted at 30° C. for 30 minutes. The test substance concentrations in the reaction solutions are 10000, 3000, 1000, 300, 100, 30, 10, 3, 1, 0.3, 0.1, and 0.01 nM.
Thereafter, 15 μL of each detection solution (62.5 nM Streptavidin-XL665 (Cisbio Bioassays SAS), […] STK antibody-Cryptate (Cisbio Bioassays SAS), 50 mM HEPES (pH 7.0), 0.8 M KF, 0.1% Bovine Serum Albumin, 20 mM ethylenediaminetetraacetic acid) was added to each well. After stirring, the mixture was reacted at 30° C. for 1 hour. Absorbance (OD620, OD665) at 620 and 665 nm was measured with a microplate reader (SpectraMax M5e, Molecular Devices, LLC).
Non-linear regression analysis was performed by an SAS system (SAS Institute Inc.) using the ratio (OD665/OD620) of the measured absorbance to calculate a test substance concentration (IC50) that inhibits PIM1 serine/threonine kinase activity by 50%.

The target of test [2] is PIM1 transgenic cells (Ba/F3) (Homo sapiens, UniProt P11309). The test is described as follows: Proliferation inhibitory effect on PIM1 transgenic cells. In kind it is cell-based, mouse. Particulars: proliferation inhibition, 72 hours, Cell Counting Kit-8, read-out: PIM1 IC50. An excerpt: Human PIM1, 2, and 3 genes were inserted into the multi-cloning sites of retrovirus expression vectors pMYs-IRES-GFP, respectively, to prepare gene transfer vectors. Then, each gene transfer vector was introduced into packaging cells PLAT-E derived from a human fetal kidney cell line in the logarithmic growth phase, using a transfection reagent (FuGENE6, Promega Corporation). Since the culture supernatant of PLAT-E after gene transfer contained virus particles for gene transfer, the culture supernatant was collected and used as a medium for gene transfer. The medium for gene transfer was added to a plate coated with RetroNectin, and the plate was incubated to attach the virus particles to the plate. Then, a mouse pro-B cell line Ba/F3 in the logarithmic growth phase was seeded on the plate and infected with the virus to prepare PIM1, 2, or 3 transgenic cells that proliferate in a PIM 1, 2, or 3-dependent manner. The expression of PIM1, 2, or 3 protein in each cell was confirmed by Western blotting.
Each test substance was prepared to 10 mM with dimethylsulfoxide (DMSO), and diluted with DMSO so as to have concentrations of 3000, 1000, 300, 100, 30, 10, 3, and 1 μM. Moreover, each dilution was further diluted 10-fold with distilled water to prepare a test substance solution.
PIM1, 2, 3-expressing cells were seeded on a 96-well plate, and each test substance solution prepared the next day was added such that final concentrations were 10000, 3000, 1000, 300, 100, 30, 10, 3, and 1 nM. 72 hours after the addition, 10 μL of Cell Counting Kit-8 (DOJINDO LABORATORIES) was added to each well. After incubation for 1 to 4 hours, absorbance OD450 at 450 nm was measured. In addition, absorption OD650 at 650 nm as a reference wavelength was measured.
OD450-OD650 for each condition was calculated, and then the inhibition rates when OD450-OD650 of negative control (DMSO only) and OD450-OD650 of Blank (without cells) were set to 0% and 100%, respectively, were calculated. Then, non-linear regression analysis was performed for logarithmic dose and inhibition rate using a two-parameter logistic model to estimate IC50 values.
(Tetrazolium assays rely on reduction of a dye to a coloured formazan, in cell work by metabolically active cells.)

T1 sequence (P11309 whole entry): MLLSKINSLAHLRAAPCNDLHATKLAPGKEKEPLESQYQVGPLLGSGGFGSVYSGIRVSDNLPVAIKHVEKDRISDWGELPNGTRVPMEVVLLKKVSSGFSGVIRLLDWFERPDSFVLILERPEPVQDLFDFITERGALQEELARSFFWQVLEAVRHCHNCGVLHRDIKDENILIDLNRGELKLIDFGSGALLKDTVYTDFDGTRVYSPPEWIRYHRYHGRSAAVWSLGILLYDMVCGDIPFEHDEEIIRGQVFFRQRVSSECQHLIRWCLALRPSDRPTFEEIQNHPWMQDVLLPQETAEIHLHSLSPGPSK
PIM1 transgenic cells (Ba/F3), sequence (P11309 whole entry, stated change not applied): as the sequence (P11309 whole entry) above

For `C[C@H](Nc1c(F)c(-c2n[nH]c(=O)o2)cc(F)c1Cl)[C@H]1CC[C@H](N)CC1` [Example 169, 5-[3-({(1S)-1-[(1r,4S)-4-aminocyclohexyl]ethyl}amino)-4-chloro-2,5-difluorophenyl]-1,3,4-oxadiazol-2(3H)-one hydrochloride], the half-maximal inhibitory concentration (IC50) (commonly the concentration needed to halve the response being measured) in test [1] stood at 6.5 nM. Moreover, the GI50 in test [2] stood at 310 nM.
On the same counts, the results for `CN[C@H]1CC[C@H]([C@H](C)Nc2cc(-c3n[nH]c(=O)o3)cc(F)c2OC(F)(F)F)CC1` [Example 204, 5-[3-fluoro-5-({(1S)-1-[(1r,4S)-4-(methylamino)cyclohexyl]ethyl}amino)-4-(trifluoromethoxy)phenyl]-1,3,4-oxadiazol-2(3H)-one hydrochloride] are 3.5 nM and 57 nM.
For `O=c1[nH]nc(-c2ccc(Cl)c(NC3CCNCC3)c2)o1` [Example 31, 5-{4-chloro-3-[(piperidin-4-yl)amino]phenyl}-1,3,4-oxadiazol-2(3H)-one hydrochloride] the same measures were 70 nM and 3300 nM.
On the same counts, the results for `O=c1[nH]nc(-c2ccc(C(F)(F)F)c(NCCN3CCNCC3)c2)o1` [Example 65, 5-[3-{[2-(piperazin-1-yl)ethyl]amino}-4-(trifluoromethyl)phenyl]-1,3,4-oxadiazol-2(3H)-one dihydrochloride] are 14 nM and 1000 nM.
Consider `C[C@H](Nc1cc(-c2n[nH]c(=O)o2)ccc1C(F)(F)F)[C@@H]1[C@@H]2CC[C@H]1CNC2` [Example 155, 5-[3-({(1S)-1-[(1R,5S,8r)-3-azabicyclo[3.2.1]octan-8-yl]ethyl}amino)-4-(trifluoromethyl)phenyl]-1,3,4-oxadiazol-2(3H)-one hydrochloride], for which, in test [1], inhibition was half-maximal at 5.8 nM (IC50). In test [2], the GI50 amounted to 92 nM.
For `C[C@H](Nc1cc(-c2n[nH]c(=O)o2)cc(C(F)(F)F)c1Cl)C1CCNCC1` [Example 101, 5-[4-chloro-3-{[(1S)-1-(piperidin-4-yl)ethyl]amino}-5-(trifluoromethyl)phenyl]-1,3,4-oxadiazol-2(3H)-one dihydrochloride] the same measures were 2.1 nM and 61 nM.
On the same counts, the results for `C[C@H](Nc1cc(-c2n[nH]c(=O)o2)cc2[nH]ncc12)C1CCNCC1` [Example 100, 5-(4-{[(1S)-1-(piperidin-4-yl)ethyl]amino}-1H-indazol-6-yl)-1,3,4-oxadiazol-2(3H)-one dihydrochloride] are 1.9 nM and 260 nM.
For `CC[C@H](Nc1cc(-c2n[nH]c(=O)o2)cc(F)c1C(F)(F)F)[C@H]1CC[C@H](N)CC1` [Example 198, 5-[3-({(1S)-1-[(1r,4S)-4-aminocyclohexyl]propyl}amino)-5-fluoro-4-(trifluoromethyl)phenyl]-1,3,4-oxadiazol-2(3H)-one] the same measures were 3.5 nM and 100 nM.
`COc1c(F)cc(-c2n[nH]c(=O)o2)cc1N[C@@H](C)[C@H]1CC[C@H](N)CC1` [Example 167, 5-[3-({(1S)-1-[(1r,4S)-4-aminocyclohexyl]ethyl}amino)-5-fluoro-4-methoxyphenyl]-1,3,4-oxadiazol-2(3H)-one hydrochloride] showed an IC50 in test [1] of 3.1 nM. Moreover, in test [2], the GI50 was found to be 94 nM.
In test [1], `C[C@H](Nc1cc(-c2n[nH]c(=O)o2)ccc1C(F)(F)F)C1CCCNCC1` (stereo partly drawn) [Example 157, 5-[3-{[(1S)-1-(azepan-4-yl)ethyl]amino}-4-(trifluoromethyl)phenyl]-1,3,4-oxadiazol-2(3H)-one hydrochloride] came in with an IC50 of 3.3 nM. Also, the GI50 in test [2] worked out at 65 nM.
For `CC(Nc1cc(-c2n[nH]c(=O)o2)ccc1C(F)(F)F)C1(C)CCNCC1` (stereo not shown) [Example 115, 5-[3-{[1-(4-methylpiperidin-4-yl)ethyl]amino}-4-(trifluoromethyl)phenyl]-1,3,4-oxadiazol-2(3H)-one] the same measures were 12 nM and 100 nM.
On the same counts, the results for `N[C@H]1CC[C@H](CCNc2cc(-c3n[nH]c(=O)o3)ccc2C(F)(F)F)CC1` [Example 117, 5-[3-({2-[(1r,4r)-4-aminocyclohexyl]ethyl}amino)-4-(trifluoromethyl)phenyl]-1,3,4-oxadiazol-2(3H)-one hydrochloride] are 31 nM and 1300 nM.
In test [1], `CCc1c(F)cc(-c2n[nH]c(=O)o2)cc1N[C@@H](C)[C@H]1CC[C@H](N)CC1` [Example 231, 5-[3-({(1S)-1-[(1r,4S)-4-aminocyclohexyl]ethyl}amino)-4-ethyl-5-fluorophenyl]-1,3,4-oxadiazol-2(3H)-one hydrochloride] returned an IC50 of 3.4 nM. The GI50 in test [2] was found to be 37 nM.
For `CN[C@H]1C[C@@H]([C@H](C)Nc2cc(-c3n[nH]c(=O)o3)cc(F)c2OC(F)(F)F)C1` [Example 208, 5-[3-fluoro-5-({(1S)-1-[(1s,3R)-3-(methylamino)cyclobutyl]ethyl}amino)-4-(trifluoromethoxy)phenyl]-1,3,4-oxadiazol-2(3H)-one] the same measures were 8.5 nM and 130 nM.
On the same counts, the results for `CCN[C@H]1C[C@@H]([C@H](C)Nc2cc(-c3n[nH]c(=O)o3)ccc2C(F)(F)F)C1` [Example 195, 5-[3-({(1S)-1-[(1s,3R)-3-(ethylamino)cyclobutyl]ethyl}amino)-4-(trifluoromethyl)phenyl]-1,3,4-oxadiazol-2(3H)-one hydrochloride] are 8.1 nM and 140 nM.
In turn, `N[C@@H]1CCCN(CCNc2cc(-c3n[nH]c(=O)o3)ccc2C(F)(F)F)C1` [Example 72, 5-[3-({2-[(3R)-3-aminopiperidin-1-yl]ethyl}amino)-4-(trifluoromethyl)phenyl]-1,3,4-oxadiazol-2(3H)-one dihydrochloride] came in with an IC50 in test [1] of 8.4 nM. In test [2], the GI50 was found to be 920 nM.
On the same counts, the results for `N[C@H]1CC[C@H](Nc2cc(-c3n[nH]c(=O)o3)ccc2Br)CC1` [Example 35, 5-(3-{[(1r,4r)-4-aminocyclohexyl]amino}-4-bromophenyl)-1,3,4-oxadiazol-2(3H)-one hydrochloride] are 4.9 nM and 510 nM.
On the same counts, the results for `Cc1cc(Cl)c(N[C@@H](C)C2CCNCC2)cc1-c1n[nH]c(=O)o1` [Example 94, 5-(4-chloro-2-methyl-5-{[(1S)-1-(piperidin-4-yl)ethyl]amino}phenyl)-1,3,4-oxadiazol-2(3H)-one hydrochloride] are 8.4 nM and 140 nM.
Take `CN[C@H]1CC[C@H](CN(C)c2cc(-c3n[nH]c(=O)o3)ccc2C(F)(F)F)CC1` [Example 132, 5-[3-(methyl{[(1r,4r)-4-(methylamino)cyclohexyl]methyl}amino)-4-(trifluoromethyl)phenyl]-1,3,4-oxadiazol-2(3H)-one hydrochloride]: in test [1], half-maximal inhibition (IC50) required 17 nM. Moreover, in test [2], the GI50 was 440 nM.
For `O=c1[nH]nc(-c2cc(F)c(Cl)c(NCC3(F)CCNCC3)c2)o1` [Example 123, 5-(4-chloro-3-fluoro-5-{[(4-fluoropiperidin-4-yl)methyl]amino}phenyl)-1,3,4-oxadiazol-2(3H)-one hydrochloride] the same measures were 8.2 nM and 340 nM.
